Reference: ChEMBL document CHEMBL1201862, “PubChem BioAssay data set” (2004)
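Growth conditions: 96-well plates. Treatment: test compound, 48 hours, 5 concentrations. Analysis: linear interpolation between bracketing concentrations; unreached endpoints set to highest concentration. GI50: concentration for 50% inhibition of growth.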 Active and inactive are the calls of the source. Cut-off read from the data, not from the text of the source: active = GI50 up to about 1.1 µM and inactive = higher.

How the values were obtained:
Assay in all cases: inhibition of tumour cell growth, NCI panel, 48 h
[1] = tested on: NCI-H23
[2] = tested on: OVCAR-5
[3] = tested on: 786-0
[4] = tested on: HCT-116
[5] = tested on: IGROV-1
[6] = tested on: HT-29
[7] = tested on: MDA-MB-435
[8] = tested on: UO-31
[9] = tested on: M14
[10] = tested on: LOX IMVI
[11] = tested on: SF-539
[12] = tested on: K562
[13] = tested on: T47D
[14] = tested on: KM12
[15] = tested on: NCI-H460
[16] = tested on: UACC-257
[17] = tested on: SK-MEL-5
[18] = tested on: CCRF-CEM
[19] = tested on: COLO 205
[20] = tested on: SK-OV-3

Structure (SMILES) | GI50 [1] | GI50 [2] | GI50 [3] | GI50 [4] | GI50 [5] | GI50 [6] | GI50 [7] | GI50 [8] | GI50 [9] | GI50 [10] | GI50 [11] | GI50 [12] | GI50 [13] | GI50 [14] | GI50 [15] | GI50 [16] | GI50 [17] | GI50 [18] | GI50 [19] | GI50 [20]
COc1cc(/C=C2\N=C(c3ccccc3)N(c3nc4ccccc4s3)C2=O)cc(OC)c1OC | 31.1 µM (inactive) | > 100 µM (inactive) | 24.8 µM (inactive) | 35 µM (inactive) | 28.6 µM (inactive) | 26.9 µM (inactive) | 15.6 µM (inactive) | 58.5 µM (inactive) | 31.4 µM (inactive) | 36.4 µM (inactive) | 32.3 µM (inactive) | 16.5 µM (inactive) | 28.9 µM (inactive) | 31.3 µM (inactive) | 65.5 µM (inactive) | > 100 µM (inactive) | 49.9 µM (inactive) | – | – | –
CN(C)CCNS(=O)(=O)N(C)C | > 100 µM (inactive) | > 100 µM (inactive) | > 100 µM (inactive) | > 100 µM (inactive) | > 100 µM (inactive) | > 100 µM (inactive) | > 100 µM (inactive) | – | > 100 µM (inactive) | > 100 µM (inactive) | > 100 µM (inactive) | > 100 µM (inactive) | > 100 µM (inactive) | > 100 µM (inactive) | > 100 µM (inactive) | > 100 µM (inactive) | > 100 µM (inactive) | > 100 µM (inactive) | > 100 µM (inactive) | > 100 µM (inactive)
O=C(O)c1ccc(Nc2cnc3cc(C(F)(F)F)ccc3n2)cc1 | 46.5 µM (inactive) | 34 µM (inactive) | 67.6 µM (inactive) | 54.7 µM (inactive) | 25.3 µM (inactive) | 63.2 µM (inactive) | 43.5 µM (inactive) | 43.2 µM (inactive) | – | 35.8 µM (inactive) | 78 µM (inactive) | 29.5 µM (inactive) | 20.9 µM (inactive) | 37.1 µM (inactive) | 36.1 µM (inactive) | 43.7 µM (inactive) | 40.8 µM (inactive) | 57.9 µM (inactive) | > 100 µM (inactive) | –
CO[C@@]12C[C@@H](C)[C@]34O[C@H]3C[C@]3(C)O[C@]43CC1=C(C)C(=O)O2 | > 100 µM (inactive) | > 100 µM (inactive) | > 100 µM (inactive) | > 100 µM (inactive) | 38.8 µM (inactive) | > 100 µM (inactive) | > 100 µM (inactive) | > 100 µM (inactive) | > 100 µM (inactive) | > 100 µM (inactive) | > 100 µM (inactive) | > 100 µM (inactive) | > 100 µM (inactive) | > 100 µM (inactive) | > 100 µM (inactive) | > 100 µM (inactive) | > 100 µM (inactive) | – | > 100 µM (inactive) | > 100 µM (inactive)
CC1(C)N=C(N)N=C(N)N1CCCCc1ccccc1 | 0.31 µM (active) | 1.99 µM (inactive) | < 0.0305 µM (active) | 0.0364 µM (active) | 0.232 µM (active) | 0.124 µM (active) | 0.155 µM (active) | 64.3 µM (inactive) | 0.181 µM (active) | 0.149 µM (active) | 0.34 µM (active) | < 0.0177 µM (active) | 10.4 µM (inactive) | 0.689 µM (active) | 0.151 µM (active) | 1.63 µM (inactive) | 0.59 µM (active) | 0.483 µM (active) | 0.433 µM (active) | –
CC1(C)OC([C@H](O)CO)C([C@H]2NCCS2)O1 (some centres undefined) | > 100 µM (inactive) | > 100 µM (inactive) | > 100 µM (inactive) | > 100 µM (inactive) | > 100 µM (inactive) | > 100 µM (inactive) | > 100 µM (inactive) | > 100 µM (inactive) | > 100 µM (inactive) | > 100 µM (inactive) | – | > 100 µM (inactive) | > 100 µM (inactive) | > 100 µM (inactive) | > 100 µM (inactive) | > 100 µM (inactive) | > 100 µM (inactive) | > 100 µM (inactive) | > 100 µM (inactive) | > 100 µM (inactive)
COc1ccc(OC)c(CC2CCc3nc(N)nc(N)c3C2)c1 (centres undefined) | 0.251 µM (active) | 0.51 µM (active) | 0.0565 µM (active) | < 0.01 µM (active) | < 0.0453 µM (active) | 6.68 µM (inactive) | 12.6 µM (inactive) | 4.85 µM (inactive) | 0.342 µM (active) | 0.0561 µM (active) | 0.275 µM (active) | > 100 µM (inactive) | 20.1 µM (inactive) | 1.56 µM (inactive) | < 0.01 µM (active) | 5.78 µM (inactive) | < 0.019 µM (active) | 0.515 µM (active) | 10.2 µM (inactive) | –
O=C1CCCC1C(=O)Nc1ccc2ccccc2c1 (centres undefined) | > 100 µM (inactive) | > 100 µM (inactive) | > 100 µM (inactive) | > 100 µM (inactive) | > 100 µM (inactive) | 55.7 µM (inactive) | > 100 µM (inactive) | > 100 µM (inactive) | > 100 µM (inactive) | > 100 µM (inactive) | – | 53.5 µM (inactive) | 62.5 µM (inactive) | 84.9 µM (inactive) | > 100 µM (inactive) | > 100 µM (inactive) | > 100 µM (inactive) | 57 µM (inactive) | > 100 µM (inactive) | > 100 µM (inactive)
CCOC(=O)c1nnn(CCCCO)c1C(=O)OCC | > 100 µM (inactive) | – | > 100 µM (inactive) | > 100 µM (inactive) | > 100 µM (inactive) | > 100 µM (inactive) | > 100 µM (inactive) | > 100 µM (inactive) | – | > 100 µM (inactive) | > 100 µM (inactive) | – | > 100 µM (inactive) | > 100 µM (inactive) | > 100 µM (inactive) | > 100 µM (inactive) | > 100 µM (inactive) | > 100 µM (inactive) | > 100 µM (inactive) | –
Cc1nn(C(=O)c2ccncc2)c2c1C(c1ccc(Cl)cc1)SC(=N)N2 (centres undefined) | > 10 µM (inactive) | > 10 µM (inactive) | > 10 µM (inactive) | > 10 µM (inactive) | > 10 µM (inactive) | > 10 µM (inactive) | > 10 µM (inactive) | – | > 10 µM (inactive) | > 10 µM (inactive) | > 10 µM (inactive) | > 10 µM (inactive) | > 10 µM (inactive) | > 10 µM (inactive) | > 10 µM (inactive) | > 10 µM (inactive) | > 10 µM (inactive) | > 10 µM (inactive) | > 10 µM (inactive) | –
CC(=O)OCC12C(OC(C)=O)C[C@@H](C)C3(CC(c4ccoc4)OC3=O)C1CCC(O)C21CO1 (some centres undefined) | > 100 µM (inactive) | > 100 µM (inactive) | > 100 µM (inactive) | > 100 µM (inactive) | > 100 µM (inactive) | > 100 µM (inactive) | > 100 µM (inactive) | > 100 µM (inactive) | > 100 µM (inactive) | > 100 µM (inactive) | > 100 µM (inactive) | > 100 µM (inactive) | 2.82 µM (inactive) | > 100 µM (inactive) | > 10 µM (inactive) | > 100 µM (inactive) | > 100 µM (inactive) | – | > 100 µM (inactive) | –
CC1=CC(=O)C[C@]2(C)[C@@H](O)CC(C(C)CO)C[C@@H]12 (some centres undefined) | > 100 µM (inactive) | > 100 µM (inactive) | > 100 µM (inactive) | > 100 µM (inactive) | > 100 µM (inactive) | > 100 µM (inactive) | > 100 µM (inactive) | > 100 µM (inactive) | > 100 µM (inactive) | > 100 µM (inactive) | > 100 µM (inactive) | – | > 100 µM (inactive) | > 100 µM (inactive) | > 100 µM (inactive) | > 100 µM (inactive) | > 100 µM (inactive) | – | > 100 µM (inactive) | > 100 µM (inactive)
COc1ccc(/C=C2/NC(=S)N=C2Cl)cc1 | > 100 µM (inactive) | 21.5 µM (inactive) | > 100 µM (inactive) | > 100 µM (inactive) | > 100 µM (inactive) | > 100 µM (inactive) | > 100 µM (inactive) | > 100 µM (inactive) | > 100 µM (inactive) | > 100 µM (inactive) | > 100 µM (inactive) | > 100 µM (inactive) | > 100 µM (inactive) | 58.3 µM (inactive) | – | > 100 µM (inactive) | > 100 µM (inactive) | > 100 µM (inactive) | > 100 µM (inactive) | > 100 µM (inactive)
COc1cccc(-c2cc(O)c3cc(N4CCOCC4)ccc3n2)c1 | 0.0289 µM (active) | 0.151 µM (active) | 0.0411 µM (active) | 0.0221 µM (active) | 0.0575 µM (active) | – | 0.00834 µM (active) | 0.0372 µM (active) | – | 0.049 µM (active) | 0.0217 µM (active) | 0.0212 µM (active) | > 10 µM (inactive) | 0.0424 µM (active) | 0.177 µM (active) | 0.0559 µM (active) | 0.0231 µM (active) | 0.0288 µM (active) | 0.0204 µM (active) | –
O=C1Nc2ccccc2/C1=C\c1c(Cl)nc2n1CCS2 | 23.7 µM (inactive) | 29 µM (inactive) | 23.4 µM (inactive) | 23.6 µM (inactive) | 32.7 µM (inactive) | 31.7 µM (inactive) | 12.6 µM (inactive) | 27 µM (inactive) | 33.7 µM (inactive) | 31.8 µM (inactive) | – | 21.3 µM (inactive) | 19.6 µM (inactive) | 17.9 µM (inactive) | 18.2 µM (inactive) | 13.7 µM (inactive) | 14.6 µM (inactive) | 26.9 µM (inactive) | 17.9 µM (inactive) | 19.5 µM (inactive)
